From ChEMBL document CHEMBL3507680, “University of Dundee, Gates Library screen for HepG2 cell viability”

Assay: Human HepG2 cell viability assay in 384 well format
Type: toxicity, cell-based
Set-up: dose 125 nL, time 70.5 hour; cytotoxicity at 70.5 h: concentration not given beside the values
Details: HepG2 cells, read-out: Inhibition

## Cc1ccccc1OCCC(=O)N(C)Cc1c(C)noc1C
  cytotoxicity at 70.5 h: -11.1%

## Cc1nnsc1CN(C)C(=O)CN1CC2(CCNCC2)OC1=O
  cytotoxicity at 70.5 h: -2.76%

## Cc1nc(CN2C[C@@H]3CN(C(=O)c4ccoc4C)C[C@@H]3C2=O)cs1
  cytotoxicity at 70.5 h: -10%

## c1coc(-c2nc(CN3CCCC(Cn4cncn4)C3)cs2)c1 (centres undefined)
  cytotoxicity at 70.5 h: 20.4%

## CC(=O)NCc1cc2n(n1)CCN(Cc1cccc(Cl)c1Cl)C2
  cytotoxicity at 70.5 h: 0.275%

## CCCc1cncnc1N1CCC(NCCc2ccc(O)cc2)CC1
  cytotoxicity at 70.5 h: -6.17%

## CCc1ccc(S(=O)(=O)N2CCC3(CC(C(=O)NC)=NO3)C2)cc1 (centres undefined)
  cytotoxicity at 70.5 h: -10.7%

## COCCOc1ccc(NC(=O)C2CCC2)cn1
  cytotoxicity at 70.5 h: -7.54%

## COc1cc(C2SC(C)=Nc3c2c(=O)[nH]n3C2CCCC2)ccc1O (centres undefined)
  cytotoxicity at 70.5 h: -9.1%

## CC(C)[C@@H]1CN(Cc2ccccc2C#N)C[C@H]1NC(=O)N(C)C
  cytotoxicity at 70.5 h: -1.2%

## COC(=O)c1cccc(-c2c[nH]c(C)n2)c1
  cytotoxicity at 70.5 h: -7.21%

## Cc1nc(C2CCN(S(=O)(=O)c3ccc4c(c3)CCC4)CC2)n[nH]1
  cytotoxicity at 70.5 h: -2.6%

## C=C(C)COc1cccc(CNC(COC)c2ccnn2C)c1 (centres undefined)
  cytotoxicity at 70.5 h: 2.53%

## Cc1noc(C)c1CN1CCn2cc(CN3CCCCC3)nc2C1
  cytotoxicity at 70.5 h: -3.15%

## CN(C)C[C@@H]1CN(C(=O)Cc2ccccc2)C[C@@H]1CO
  cytotoxicity at 70.5 h: -3.7%

## Cc1cnc(C)c(-c2cc(O)c3c(c2)CN(c2ncccn2)CCO3)n1
  cytotoxicity at 70.5 h: 48.2%

## Cc1cc(=O)n2nc(Oc3cc(Cl)cc(Cl)c3)sc2n1
  cytotoxicity at 70.5 h: -19.3%

## CC(C)(CO)Nc1ccc(-c2nc(-c3ccccc3F)no2)cn1
  cytotoxicity at 70.5 h: -5.95%

## O=C(COc1ccccc1)NCC1CCN(Cc2ccsc2)CC1
  cytotoxicity at 70.5 h: -4.27%

## O=C(C1CCS(=O)(=O)CC1)N1CCC(c2ccc(F)cc2)C1 (centres undefined)
  cytotoxicity at 70.5 h: 4.45%

## CC(C)(C)CCCC(=O)NS(=O)(=O)CC1CC1
  cytotoxicity at 70.5 h: -0.428%

## Cc1nn(CCO)cc1CN1CCC(N2CCC(O)CC2)CC1
  cytotoxicity at 70.5 h: 1.99%

## CC(=O)N(Cc1ncc(C)o1)C1CCN(CCCc2cnn(C)c2)C1 (centres undefined)
  cytotoxicity at 70.5 h: 13.3%

## CCc1cc(N2CCN(C(C)=O)CC2)n2nc(C)c(C)c2n1
  cytotoxicity at 70.5 h: 10.6%

## COC(=O)[C@H](C)NC(=O)c1cnc(Cc2ccc(F)cc2)s1
  cytotoxicity at 70.5 h: -0.425%

## N#Cc1ccc(S(=O)(=O)NC(=O)c2ccc3c(c2)COC3)cc1
  cytotoxicity at 70.5 h: -4.81%

## O[C@H]1CC[C@@H](Cc2cc(-c3ccc(F)cc3)on2)O[C@@H]1CNCC1CC1
  cytotoxicity at 70.5 h: -5.85%

## CC(C)(O)CN1CC(C)(C)CN(C(=O)CCc2ccccc2)CC1=O
  cytotoxicity at 70.5 h: -1.35%

## O=C(CCNC(=O)c1ccoc1)Nc1ccc(F)cc1F
  cytotoxicity at 70.5 h: -10.2%

## Cc1nc2cc(OCc3nc(C(=O)NC(CO)CO)co3)ccc2s1
  cytotoxicity at 70.5 h: -8.5%

## CC(C)C[C@H](N)c1nnc(SCC(N)=O)o1
  cytotoxicity at 70.5 h: 24.4%

## O=C(O)c1ccc(COc2cccc(Cl)c2)s1
  cytotoxicity at 70.5 h: -5.91%

## CN(Cc1csc(-c2ccccc2)n1)C(=O)CCNS(C)(=O)=O
  cytotoxicity at 70.5 h: -8.29%

## COc1ccc(CC2CN(C3CCSCC3)CCO2)cc1 (centres undefined)
  cytotoxicity at 70.5 h: 1.2%

## Cc1cn(Cc2nc(CC(C)C)nn2-c2ccccn2)c(=O)[nH]c1=O
  cytotoxicity at 70.5 h: -1.31%

## Cc1ccc2c(n1)N(CC1CC1)CCN(Cc1cnn(C)c1)C2
  cytotoxicity at 70.5 h: 30.4%

## O=C(COC1CCCCC1)NS(=O)(=O)c1ccc2c(c1)OCCCO2
  cytotoxicity at 70.5 h: 13.6%

## CCC(CNS(C)(=O)=O)Oc1ccccc1F (centres undefined)
  cytotoxicity at 70.5 h: -6.95%

## Cc1cccc(C)c1OCCNC(=O)C(C)n1cncn1 (centres undefined)
  cytotoxicity at 70.5 h: -11.4%

## CCc1cc(N2CCC(Nc3ccc(Cl)cn3)CC2)ncn1
  cytotoxicity at 70.5 h: 12.5%

## Cc1cc(C)n(CC(=O)NC(Cc2ccsc2)c2ccccn2)c(=O)n1 (centres undefined)
  cytotoxicity at 70.5 h: 13.9%

## COc1ccccc1-c1ncc(CN2C[C@H](O)[C@@H](N3CCCC3)C2)s1
  cytotoxicity at 70.5 h: -14.6%

## Cc1ccc(CN2CC[C@@H]3OCCN(S(C)(=O)=O)[C@H]3CC2)s1
  cytotoxicity at 70.5 h: -3.31%

## Cc1ccoc1C(=O)N1CC[C@H]2[C@H](C[C@@H](CN3CCCC3)N2C)C1
  cytotoxicity at 70.5 h: 4.09%

## Cn1cc(-c2cc(C(=O)N3CCOCC3)c3ccc(F)cc3n2)cn1
  cytotoxicity at 70.5 h: 24.6%

## CC(=O)N1CCC(N2CCN3C(=O)N(Cc4ccccn4)C[C@H]3C2)CC1
  cytotoxicity at 70.5 h: -1.05%

## Cc1cc(C)n(CC2CCCN2C(=O)c2cccc3c2OCCO3)n1 (centres undefined)
  cytotoxicity at 70.5 h: -3.57%

## O=C1CO[C@@H]2CN(C(=O)CCc3ccccc3)C[C@H]2N1
  cytotoxicity at 70.5 h: -5.06%

## CS(=O)(=O)NC1CCCN(c2ccc(C#N)cn2)C1 (centres undefined)
  cytotoxicity at 70.5 h: -6.77%

## CN(C)S(=O)(=O)N(Cc1cscn1)c1ccccc1
  cytotoxicity at 70.5 h: 12.4%

## Cc1nc(-c2cccc(C(=O)N(C)C)c2)cs1
  cytotoxicity at 70.5 h: 1.56%

## CC(C)(C)n1cc(C(=O)N2CCN(Cc3ccsc3)CC2)cn1
  cytotoxicity at 70.5 h: -0.132%

## N#Cc1cc(Cn2cnc(C3CCC3)cc2=O)ccc1F
  cytotoxicity at 70.5 h: -15.4%

## Cc1ccc(-c2cc(C(=O)NCCCc3csc(N)n3)[nH]n2)o1
  cytotoxicity at 70.5 h: 1.47%

## CN1CCOC(CNCCCOc2ccc(C#N)cc2)C1 (centres undefined)
  cytotoxicity at 70.5 h: -5.34%

## CN(Cc1cn2c(n1)CN(C(=O)c1ccc[nH]1)CC2)Cc1ccco1
  cytotoxicity at 70.5 h: 0.342%

## Cc1cc(-c2cnn(CCNC(=O)C3CC3)c2C2CC2)on1
  cytotoxicity at 70.5 h: 27%

## CCN(CC)S(=O)(=O)N1CCC(c2c(C(N)=O)sc3ccccc23)C1 (centres undefined)
  cytotoxicity at 70.5 h: -3.04%

## Cc1cccc(C)c1NCc1noc(C2CC2)n1
  cytotoxicity at 70.5 h: 0.946%

## COc1ccc2nnc(CCCC(=O)NCCC3=CCCCC3)n2n1
  cytotoxicity at 70.5 h: -4.24%

## Cc1nc(C(=O)N2CCCC(c3cc(C(F)(F)F)[nH]n3)C2)c[nH]1 (centres undefined)
  cytotoxicity at 70.5 h: -6.23%

## O=C(NCCCn1cccn1)C1(c2ccc(F)cc2)CC1
  cytotoxicity at 70.5 h: -2.75%

## O=C1CC[C@H](C(=O)N(CCc2ccccc2)C2CCOC2)N1 (some centres undefined)
  cytotoxicity at 70.5 h: 24.8%

## CCc1ccc(O)c(C(=O)N2CCN(CC(=O)N(C)C)CC2)c1
  cytotoxicity at 70.5 h: -1.61%

## CN(CCOCC(F)(F)F)CC1CCN(CCO)CC1
  cytotoxicity at 70.5 h: 16.2%

## c1cncc(CN2CCC(c3n[nH]c(C4CC4)n3)CC2)c1
  cytotoxicity at 70.5 h: 33.7%

## CCn1cc(S(=O)(=O)N2CCCC3(CC=CNC3=O)C2)cn1 (centres undefined)
  cytotoxicity at 70.5 h: -0.325%

## COc1c(CNCc2ccc(N3CCOCC3)nc2)c(C)nn1C
  cytotoxicity at 70.5 h: -5.76%

## CCOc1ccc(Oc2cc(N)ccn2)cc1
  cytotoxicity at 70.5 h: -4.03%

## Cc1ccc(NC2CCN(C(=O)c3ccoc3C)CC2)nn1
  cytotoxicity at 70.5 h: -0.801%

## Cn1cc(CN2C[C@H]3CCC[C@@]3(COc3cccnc3)C2)cn1
  cytotoxicity at 70.5 h: -2.32%

## CN(C)C(=O)N1CCN(CCCOc2ccccc2)[C@H]2CS(=O)(=O)C[C@H]21
  cytotoxicity at 70.5 h: -5.64%

## O=C(C1CCOCC1)N1C[C@@H]2[C@@H](C1)OCC(=O)N2Cc1ccncc1
  cytotoxicity at 70.5 h: -5.97%

## Cc1c(CCC(=O)Nc2ccc(Cl)cn2)cnn1C
  cytotoxicity at 70.5 h: -1.57%

## CN1C(=O)[C@H]2CC[C@@H]1CN(C(=O)c1nnc3n1CCCCC3)C2
  cytotoxicity at 70.5 h: -6.73%

## Cc1nc(-c2cc(C(=O)O)co2)cs1
  cytotoxicity at 70.5 h: -9.39%

## NC(=O)C1CCN(C(=O)c2cccc(OCc3cscn3)c2)CC1
  cytotoxicity at 70.5 h: -12.5%

## O=C(NCc1ccc2c(c1)CCCO2)C1CNCCO1 (centres undefined)
  cytotoxicity at 70.5 h: 48.5%

## O=C(NCc1cccc(N2CC=CC2)c1)NC1CC1
  cytotoxicity at 70.5 h: -2.22%

## O=C1C[C@H]2[C@@H](CCN2C(=O)Cc2cccs2)N1Cc1cccnc1
  cytotoxicity at 70.5 h: -17%

## OCC1CCCN1c1cc(NCCNc2cccnn2)ncn1 (centres undefined)
  cytotoxicity at 70.5 h: -6.7%

## CC(=O)c1cc(CC(=O)NCc2ccsc2)cs1
  cytotoxicity at 70.5 h: -1.03%

## CCn1c(C)nnc1Sc1nn2cc(C)nc2s1
  cytotoxicity at 70.5 h: -5.8%

## CCc1cc(CNC(=O)NCc2ccc(N3CCCCC3)cc2)on1
  cytotoxicity at 70.5 h: -7.79%

## N#Cc1ccc(CS(=O)(=O)NC(=O)c2ccc(C#N)cc2)cc1
  cytotoxicity at 70.5 h: -14.8%

## Cc1noc(C)c1CN1CC[C@H]2OCC[C@@H](C(=O)N3CCCO3)[C@@H]2C1
  cytotoxicity at 70.5 h: -14.6%

## O=C(NC1CC1)c1ccn(COc2c(Cl)cccc2Cl)n1
  cytotoxicity at 70.5 h: -14.6%

## COCC1CN(C(=O)c2cccn2C)Cc2c1cnn2CC1CC1 (centres undefined)
  cytotoxicity at 70.5 h: -1.46%

## O=c1n(CCSCc2ccccc2Cl)nc2ccccn12
  cytotoxicity at 70.5 h: -6.77%

## CSc1ccccc1NC(=O)CCC(=O)N(C)C1CCN(C)CC1
  cytotoxicity at 70.5 h: -0.551%

## Cc1cc(F)ccc1N1CCCC(Nc2nccn3cnnc23)C1=O (centres undefined)
  cytotoxicity at 70.5 h: -2.63%

## CC(Cn1cccn1)NC(=O)NCc1ccccn1 (centres undefined)
  cytotoxicity at 70.5 h: -3.27%

## CNc1ccc(CC2CCCN(C(=O)c3cncnc3C)C2)nn1 (centres undefined)
  cytotoxicity at 70.5 h: -0.989%

## O=S(=O)(N1CCCCCC1)N1CCc2sccc2C1
  cytotoxicity at 70.5 h: -5.4%

## CNC(=O)c1sc2ccccc2c1C1CCN(c2cc(C)nc(C)n2)C1 (centres undefined)
  cytotoxicity at 70.5 h: 18.1%

## Cc1cnn(CC(C)NCc2ccc(C#N)cc2)c1 (centres undefined)
  cytotoxicity at 70.5 h: 0.599%

## COc1ccc(CN2CCC(O)CC2)c(OC)c1
  cytotoxicity at 70.5 h: -6.19%

## COC(=O)C(c1cc(F)ccc1F)N(C)C(=O)c1ccccn1 (centres undefined)
  cytotoxicity at 70.5 h: -9.53%

## CC(C(=O)NCc1ccnc(N(C)C)c1)n1cncn1 (centres undefined)
  cytotoxicity at 70.5 h: -10.2%

## CC(=O)N1CCC[C@H]1C(=O)NCCOc1cccc(Cl)c1
  cytotoxicity at 70.5 h: 0.931%

## COCCCSc1ccc(NCc2scnc2C)cc1
  cytotoxicity at 70.5 h: -0.225%

## CC(C)Cn1nc2ccc(S(=O)(=O)N3CCC(C)CC3)cn2c1=O
  cytotoxicity at 70.5 h: -10.3%

## CC(C)OCc1ncn2c1CN(Cc1cccs1)CCC2
  cytotoxicity at 70.5 h: 1.83%

## Cc1c(I)cccc1C(=O)NCc1nnc[nH]1
  cytotoxicity at 70.5 h: -8.8%

## CCS(=O)(=O)c1ccccc1N1CCC(NC(C)=O)CC1
  cytotoxicity at 70.5 h: -4.79%

## Cc1noc(C(C)C)c1C(=O)NCCN1CCCCCC1=O
  cytotoxicity at 70.5 h: -19%

## CC(=O)N1[C@H](Cn2cncn2)C[C@@H]2CN(c3ncc(F)cn3)CC[C@@H]21
  cytotoxicity at 70.5 h: -0.528%

## O=C(NCc1cc(Br)cs1)Nc1cn[nH]c1
  cytotoxicity at 70.5 h: -23.7%

## Cc1ccsc1C(O)CNS(=O)(=O)Cc1ccc(F)cc1 (centres undefined)
  cytotoxicity at 70.5 h: -10.1%

## O=C1[C@H]2CC[C@H](CN(S(=O)(=O)c3ccccc3)C2)N1Cc1cscn1
  cytotoxicity at 70.5 h: 8.27%

## Cc1cc(S(=O)(=O)N(C)CC(N)=O)ccc1Br
  cytotoxicity at 70.5 h: -2.54%

## O=C(NCC1(O)CCOc2ccccc21)Nc1ccccc1 (centres undefined)
  cytotoxicity at 70.5 h: 1.09%

## CCN(c1ccc(C(=O)N2CCCCC2)cc1)S(=O)(=O)CC
  cytotoxicity at 70.5 h: -9.5%

## CC(C)(C)c1nnnn1CC(=O)N(CCC#N)c1ccccc1
  cytotoxicity at 70.5 h: -9.07%
